From patent US11365195B2, “Atypical inhibitors of monoamine transporters; method of making; and use thereof” (THE UNITED STATES OF AMERICA, AS REPRESENTED BY THE …, priority 2017, dated 2022) come the findings set out here.

For data set [1], the target named is T1, DAT (Rattus norvegicus, UniProt P23977).
T1 construct: 100 μl of tissue preparation (1.5 mg of brain striatum membranes per well); tissue Bioreclamation IVT (Hicksville, N.Y.); host or cells: male Sprague-Dawley rat brain striatum membranes
T1 sequence (P23977 whole entry): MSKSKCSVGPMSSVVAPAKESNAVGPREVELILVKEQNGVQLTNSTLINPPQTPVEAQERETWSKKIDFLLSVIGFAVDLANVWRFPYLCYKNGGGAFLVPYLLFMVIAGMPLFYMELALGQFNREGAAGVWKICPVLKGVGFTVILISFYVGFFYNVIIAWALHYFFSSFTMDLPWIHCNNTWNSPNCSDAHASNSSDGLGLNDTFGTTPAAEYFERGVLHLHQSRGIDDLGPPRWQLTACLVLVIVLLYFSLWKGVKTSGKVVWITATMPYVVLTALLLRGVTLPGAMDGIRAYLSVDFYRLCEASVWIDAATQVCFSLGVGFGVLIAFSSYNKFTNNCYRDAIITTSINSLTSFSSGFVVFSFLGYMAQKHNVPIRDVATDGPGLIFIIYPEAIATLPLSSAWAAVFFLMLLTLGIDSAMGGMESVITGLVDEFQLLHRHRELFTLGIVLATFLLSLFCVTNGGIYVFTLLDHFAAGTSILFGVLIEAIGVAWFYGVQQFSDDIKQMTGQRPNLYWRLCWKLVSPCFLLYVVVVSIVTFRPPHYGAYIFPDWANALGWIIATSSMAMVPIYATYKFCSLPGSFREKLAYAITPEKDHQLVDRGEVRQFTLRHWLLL
As to the kind of experiment: DAT radioligand binding in rat striatum ([3H]-WIN35,428 competition). The note with it: for SERT/DAT: ratio of SERT Ki to DAT Ki. As for the experimental part:
(§1) Binding affinities of the analogue compounds were evaluated at the DAT and SERT in rat brain membranes, and sigma-1 in guinea pig brain membranes according to the following protocols.
DAT Radioligand Binding in Rat Striatum
The tissue was centrifuged at 20,000 rpm for 10 min at 4° C. The pellet was suspended in cold buffer and centrifuged again using the same settings. The resulting pellet was resuspended in cold buffer at a concentration of 15 mg/mL OWW (original wet weight). On test day, all test compounds were freshly dissolved in 30% DMSO and 70% H2O to a stock concentration of 1 mM or 100 μM When necessary, to assist the solubilization of compounds, 10 μl of glacial acetic acid was added along with the DMSO (in place of 10 μl final H2O volume). Each test compound was then diluted into 10 half-log serial dilutions using 30% DMSO vehicle. […] Non-specific binding was determined using […] Indatraline and total binding was determined with 30% DMSO vehicle. The reaction was started with the addition of the tissue. […] The filters were washed 3 times with 3 mL (3×1 mL/well) of ice cold binding buffer. […] These analyses were performed using GraphPad Prism version 6.00 for Macintosh (GraphPad Software, San Diego, Calif.).

The target of data set [2] is T2, σ1R (Cavia porcellus, UniProt Q60492).
T2 construct: tissue BioReclamation IVT (Hicksville, N.Y.); host or cells: male Hartley guinea pig brain cortex membranes
T2 sequence (Q60492 whole entry): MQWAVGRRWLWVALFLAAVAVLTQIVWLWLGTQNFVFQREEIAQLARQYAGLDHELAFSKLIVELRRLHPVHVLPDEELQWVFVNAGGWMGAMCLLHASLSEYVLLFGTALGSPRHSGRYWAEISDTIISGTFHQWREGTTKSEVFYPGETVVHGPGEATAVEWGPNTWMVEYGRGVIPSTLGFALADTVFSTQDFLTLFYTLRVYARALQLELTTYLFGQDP
As to the kind of experiment: σ1R radioligand binding in guinea pig cortex ([3H]-(+)-Pentazocine competition). The settings on record: for σ1/DAT: ratio of σ1 to DAT affinity values; for σ1/SERT: ratio of σ1 to SERT affinity values. As for the experimental part:
as §1
σ1R Radioligand Binding in Guinea Pig Cortex
Male Hartley guinea pig cortices were dissected from freshly harvested brains (shipped cold in PBS buffer from BioReclamation IVT (Hicksville, N.Y.)) and frozen at −80° C. for future use. […] The supernatant was collected in a clean tube and the pellet re-suspended in 10 ml of cold buffer and centrifuged again (˜1,200 rpm) for 10 min at 4° C. […] The final pellet was suspended in ice-cold binding buffer at 50 mg/ml concentration. […] All test compounds were freshly dissolved in 30% DMSO and 70% H2O to a stock concentration of 1 mM or 100 μM. When necessary, to assist the solubilization of compounds, 10 μl of glacial acetic acid was added along with the DMSO (in place of 10 μl final H2O volume). Each test compound was then diluted into 10 half-log serial dilutions using 30% DMSO as the vehicle. […] Nonspecific binding was determined using either 10 μM PRE084 or 10 μM (+)-Pentazocine and total binding was determined with 30% DMSO vehicle (3% DMSO final concentration). […] The filters were washed 3 times with 3 ml (3×1 ml/well) of ice cold binding buffer.

Data set [3] has as its target T3, SERT (Rattus norvegicus, UniProt P31652).
T3 construct: 100 μl of tissue preparation (2 mg of brain stem membranes per well); tissue Bioreclamation IVT (Hicksville, N.Y.); host or cells: male Sprague-Dawley rat brain stem membranes
As to the kind of experiment: SERT radioligand binding in rat midbrain ([3H]-Citalopram competition). As for the experimental part: as §1
SERT Radioligand Binding in Rat Midbrain
The tissue was centrifuged at 20,000 rpm for 10 min at 4° C. The pellet was suspended in cold buffer and centrifuged again using the same settings. The resulting pellet was resuspended in cold buffer at a concentration of 20 mg/mL OWW (original wet weight). On test day, all test compounds were freshly dissolved in 30% DMSO and 70% H2O to a stock concentration of 1 mM or 100 μM. When necessary, to assist the solubilization of compounds, 10 μl of glacial acetic acid was added along with the DMSO (in place of 10 μl final H2O volume). Each test compound was then diluted into 10 half-log serial dilutions using 30% DMSO vehicle. […] Non-specific binding was determined using […] Fluoxetine HCl and total binding was determined with 30% DMSO vehicle. The reaction was started with the addition of the tissue. All compound dilutions were tested in triplicate and the reaction incubated for 60 min at room temperature. The reaction was terminated by filtration through Perkin Elmer Uni-Filter-96 GF/B, presoaked for 60 min in 0.3% polyethylenimine, using a Brandel 96-Well Plates Harvester Manifold (Brandel Instruments, Gaithersburg, Md.). The filters were washed 3 times with 3 mL (3×1 mL/well) of ice cold binding buffer. […] These analyses were performed using GraphPad Prism version 6.00 for Macintosh (GraphPad Software, San Diego, Calif.).

Data set [4] can be described thus: Phase I metabolic stability in rat liver microsomes. The class given is in vitro ADME. The settings on record: for Phase I in Liver Microsomes, Negative Control: rat liver microsomes lacking NADPH; for Phase I in Liver Microsomes, Rat: with NADPH, 10 μM compound, 0.5 mg/mL microsomes. As to the method: Methods: Phase I metabolic stability assays were conducted in rat liver microsomes. For phase I metabolism, the reactions were carried out with 100 mM potassium phosphate buffer, pH 7.4, in the presence of NADPH regenerating system (1.3 mM NADPH, 3.3 mM glucose 6-phosphate, 3.3 mM MgCl2, 0.4 U/mL glucose-6-phosphate dehydrogenase, […] sodium citrate). Reactions in triplicate were initiated by addition of the liver microsomes to the incubation mixture (compound final concentration was 10 μM; 0.5 mg/mL microsomes). Compound disappearance was monitored via LC/MS/MS. […] The total run time for each analyte was 5.0 min.
In general terms: Microsomes from liver hold many membrane-bound enzymes, among them those of drug oxidation.

Where [5] appears, read: rat striatum membranes, [3H]-WIN35,428, mean ± SEM, read-out: DAT (rat striatum) Ki ± SEM.
Setting [6] is: rat midbrain/brain stem membranes, [3H]-Citalopram, mean ± SEM, read-out: SERT (rat mid-brain-stem) Ki ± SEM.

The structures appear in SMILES notation. Where two headings read alike, the source gives them in different places.

T3 sequence (P31652 whole entry): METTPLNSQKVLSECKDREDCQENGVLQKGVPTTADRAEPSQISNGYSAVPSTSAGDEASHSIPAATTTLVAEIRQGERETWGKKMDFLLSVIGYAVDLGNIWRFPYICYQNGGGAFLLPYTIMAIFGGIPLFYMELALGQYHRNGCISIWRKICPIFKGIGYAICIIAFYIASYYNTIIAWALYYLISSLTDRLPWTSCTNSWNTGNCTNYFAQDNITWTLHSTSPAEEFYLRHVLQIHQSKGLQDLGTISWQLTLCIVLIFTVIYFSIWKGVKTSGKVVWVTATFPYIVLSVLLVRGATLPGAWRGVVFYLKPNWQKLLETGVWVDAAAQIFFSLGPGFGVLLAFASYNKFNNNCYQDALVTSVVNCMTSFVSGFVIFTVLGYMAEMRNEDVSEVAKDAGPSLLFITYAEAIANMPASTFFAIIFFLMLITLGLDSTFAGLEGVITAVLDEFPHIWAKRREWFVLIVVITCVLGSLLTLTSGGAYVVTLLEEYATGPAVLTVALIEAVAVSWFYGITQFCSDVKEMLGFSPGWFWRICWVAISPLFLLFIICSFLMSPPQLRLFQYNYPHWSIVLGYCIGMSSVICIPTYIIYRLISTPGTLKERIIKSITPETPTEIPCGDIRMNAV

With `Fc1ccc(C(SCCNC2CCN(Cc3ccccc3)CC2)c2ccc(F)cc2)cc1` [JBG01-052, 1-Benzyl-N-(2-((bis(4-fluorophenyl)methyl)thio)ethyl)piperidin-4-amine], in data set [1] (setting [5]), the Ki (usually the dissociation constant of the complex between target and ligand, obtained from inhibition or displacement) is 32.9 ± 5.86 nM. Further, the SERT/DAT in data set [1] amounted to 12.37. For the same compound, in data set [2], the affinity, expressed as Kd, was 3.97 ± 0.767 nM; the σ1/DAT was found to be 0.12; the σ1/SERT was found to be 0.0098. Further, the Ki in data set [3] (setting [6]) was found to be 407 ± 57.9 nM.
`Cl.Cl.OC(Cc1ccccc1)CN(CC(O)Cc1ccccc1)C1CCN(CCSC(c2ccc(F)cc2)c2ccc(F)cc2)CC1` (centres unmarked) [JBG01-056, 3,3′-((1-(2-((Bis(4-fluorophenyl)methyl)thio)ethyl)piperidin-4-yl)azanediyl)bis(1-phenylpropan-2-ol)]: in data set [1], the affinity corresponds to a Ki of 186 ± 46.4 nM and the SERT/DAT was found to be 8.44. For the same compound, in data set [2], the Kd (commonly the equilibrium constant for the complex coming apart) came out at 326 ± 22.4 nM, the σ1/DAT is listed as 1.75 and the σ1/SERT is on record as 0.21. In data set [3], the Ki is 1570 ± 315 nM.
Consider `Fc1ccc(C(SCCN2CCC(NCc3ccccc3)CC2)c2ccc(F)cc2)cc1` [JBG01-057, N-Benzyl-1-(2-((bis(4-fluorophenyl)methyl)thio)ethyl)piperidin-4-amine], for which the Ki in data set [1] (setting [5]) was determined as 108 ± 17.5 nM. In data set [1], the SERT/DAT turned out to be 3.05. Besides, in data set [2], the σ1/DAT is given as 0.56 and the σ1/SERT amounted to 0.19. The Ki in data set [3] (setting [6]) stood at 329 ± 34.3 nM.
`Cl.Cl.OC(Cc1ccccc1)CN1CCC(NCCSC(c2ccc(F)cc2)c2ccc(F)cc2)CC1` (centres unmarked) [JBG01-058, 1-(4-((2-((Bis(4-fluorophenyl)methyl)thio)ethyl)amino)piperidin-1-yl)-3-phenylpropan-2-ol]: the “Phase I in Liver Microsomes, Negative Control” value in data set [4] (0 min) turned out to be 100%; in data set [4] (60 min) it was 96%. For the same compound, the figures for the “Phase I in Liver Microsomes, Rat” value in data set [4] (0 min), in data set [4] (30 min) and in data set [4] (60 min) were 100%, 98% and 74%, respectively. For the same compound, the Ki in data set [3] (setting [6]) is 128 ± 33.2 nM.
As for `Cl.Cl.Fc1ccc(CNC2CCN(CCSC(c3ccc(F)cc3)c3ccc(F)cc3)CC2)cc1` [JBG01-064, 1-(2-((Bis(4-fluorophenyl)methyl)thio)ethyl)-N-(4-fluorobenzyl)piperidin-4-amine], the Ki in data set [1] (setting [5]) came to 55.9 ± 6.08 nM. Further, the SERT/DAT in data set [1] worked out at 4.78. For the same compound, in data set [2], the σ1/DAT is listed as 0.74 and the σ1/SERT came to 0.16. Besides, in data set [3] (setting [6]), the Ki turned out to be 267 ± 9.25 nM.
Consider `Cl.Cl.Fc1ccc(C(SCCNC2CCN(Cc3ccc(Cl)cc3)CC2)c2ccc(F)cc2)cc1` [JBG01-078, N-(2-((Bis(4-fluorophenyl)methyl)thio)ethyl)-1-(4 chlorobenzyl)piperidin-4-amine], for which the Ki in data set [1] (setting [5]) worked out at 39.6 ± 9.27 nM. The SERT/DAT in data set [1] was found to be 8.99. Further, in data set [2], the σ1/DAT was 1.15 and the σ1/SERT is 0.13. Also, in data set [3] (setting [6]), the Ki is 356 ± 0.862 nM.
Turning to `Cl.Cl.Fc1ccc(C(SCCNC2CCN(Cc3ccc(C(F)(F)F)cc3)CC2)c2ccc(F)cc2)cc1` [JBG01-083, N-(2-((Bis(4-fluorophenyl)methyl)thio)ethyl)-1-(4-(trifluoromethyl)benzyl)piperidin-4-amine], the Ki in data set [1] (setting [5]) was found to be 190 ± 47.9 nM; in data set [3] (setting [6]), 1620 ± 175 nM. For the same compound, in data set [1], the SERT/DAT is 8.53.
Turning to `Cl.Cl.Fc1ccc(C(SCCNC2CCN(CCc3ccccc3)CC2)c2ccc(F)cc2)cc1` [JBG01-084, N-(2-((Bis(4-fluorophenyl)methyl)thio)ethyl)-1-phenethylpiperidin-4-amine], the Ki in data set [1] (setting [5]) amounted to 31.5 ± 5.32 nM. In data set [1], the SERT/DAT is on record as 4.57. For the same compound, in data set [2], the σ1/DAT is on record as 1.83 and the σ1/SERT turned out to be 0.40. Moreover, the Ki in data set [3] (setting [6]) amounted to 144 ± 17 nM.
Consider `Cl.Cl.Fc1ccc(C(SCCN2CCC(NCc3ccc(C(F)(F)F)cc3)CC2)c2ccc(F)cc2)cc1` [JBG01-087, 1-(2-((Bis(4-fluorophenyl)methyl)thio)ethyl)-N-(4-(trifluoromethyl)benzyl)piperidin-4-amine], for which the values for the Ki in data set [1] (setting [5]) and in data set [3] (setting [6]) were 128 ± 31.9 nM and 1040 ± 190 nM, respectively. Moreover, the SERT/DAT in data set [1] came out at 8.13.
`Cl.O=C(c1ccccc1)N1CCC(NCCSC(c2ccc(F)cc2)c2ccc(F)cc2)CC1` [JBG02-009, (4-((2-((Bis(4-fluorophenyl)methyl)thio)ethyl)amino)piperidin-1-yl)(phenyl)methanone] gave a Kd in data set [2] of 2.04 ± 0.298 nM. In addition, the “Phase I in Liver Microsomes, Negative Control” value in data set [4] (0 min) and in data set [4] (60 min) was 100% each time. Also, the “Phase I in Liver Microsomes, Rat” value in data set [4] (0 min) stood at 100%; in data set [4] (30 min) it was 20%; in data set [4] (60 min), 7%. The “stability to Phase I metabolism (in words)” value in data set [4] (rat liver microsomes fortified with NADPH) is “susceptibility”.
`Cl.Cl.Fc1ccc(C(SCCNC2CCN(Cc3cc4ccccc4[nH]3)CC2)c2ccc(F)cc2)cc1` [JBG02-014, 1-((1H-Indol-2-yl)methyl)-N-(2-((bis(4-fluorophenyl)methyl)thio)ethyl)piperidin-4-amine]: the Ki in data set [1] (setting [5]) was 179 ± 22 nM; in data set [3] (setting [6]), 1720 ± 516 nM. In addition, the SERT/DAT in data set [1] was determined as 9.61.
As to `O=C(c1cc2ccccc2o1)N1CCC(NCCSC(c2ccc(F)cc2)c2ccc(F)cc2)CC1` [JBG02-015, Benzofuran-2-yl(4-((2-((bis(4-fluorophenyl)methyl)thio)ethyl)amino)piperidin-1-yl)methanone], the values for the Ki in data set [1] (setting [5]) and in data set [3] (setting [6]) were 115 ± 19.5 nM and 96.4 ± 23.7 nM, respectively.
With `Cl.Cl.O.O=C(c1cc2ccccc2[nH]1)N1CCC(NCCSC(c2ccc(F)cc2)c2ccc(F)cc2)CC1` [JBG02-029, (4-((2-((Bis(4-fluorophenyl)methyl)thio)ethyl)amino)piperidin-1-yl)(1H-indol-2-yl)methanone], in data set [1], affinity was put at a Ki of 180 ± 39.8 nM and the SERT/DAT was determined as 5.21. For the same compound, the Ki in data set [3] (setting [6]) was determined as 938 ± 76.5 nM.
In the case of `Cl.O=C(c1ccccc1)N1CCC(NCC[S+]([O-])C(c2ccc(F)cc2)c2ccc(F)cc2)CC1` (centres unmarked) [JBG02-055, (4-((2-((Bis(4-fluorophenyl)methyl)sulfinyl)ethyl)amino)piperidin-1-yl)(phenyl)methanone], the Ki in data set [1] (setting [5]) amounted to 79.1 ± 20.6 nM; in data set [3] (setting [6]), 7730 ± 732 nM. Further, in data set [1], the SERT/DAT is 97.72.
The corresponding values for `CC(C)(C)C(=O)N1CCC(NCCSC(c2ccc(F)cc2)c2ccc(F)cc2)CC1.Cl` [JBG02-064, 1-(4-((2-((Bis(4-fluorophenyl)methyl)thio)ethyl)amino)piperidin-1-yl)-2,2-dimethylpropan-1-one] are 352 ± 137 nM, 1000 ± 228 nM and 2.84.
